Key:
Type in all cases: cell-based, human
[1] = system: 2008 sensitive ovarian carcinoma cells; assay: Cytotoxicity assay by colony forming ability, sensitive cells; conditions: 25 μM cisplatin, 1 h
Description: Colony forming ability assay was performed by seeding 100 cells/ml of sensitive or resistant isotypes per each well/ml in 12 well plates. Cells were cultured with DMEM, 10% FBS overnight. The assay was performed in 4 plates for each of the sensitive or resistant isotypes in the format shown in Table 1 and was repeated three times. 2008 isotype pair were used in the experiment. Sensitive cells could not tolerate such high concentration of cisplatin, used in the assay, to serve the resistant cells, as the IC-50 was 10 fold higher for resistant cells compare to their parental susceptible phenotype.
Table 1: Colony forming ability was performed by seeding 100 cells/ml of sensitive or resistant isotypes per each well/ml in 12 well plates. Cells were cultured with DMEM, 10% FBS overnight. The assay was performed in 4 plates for each of the sensitive or resistant isotypes in the above format and was repeated three times for each cell pair. plate 1 (control): DMEM, 10%FBS; plate 2: DMEM containing 25 μM cisplatin; plate 3: DMEM containing 25 μM cisplatin and 5 mU neuraminidase (AUS); plate 4: DMEM containing 5 mU neuraminidase.
After one hour incubation at 37 degree C., 5% CO2, the media of different treatments were removed from the wells. Cells were then washed with DMEM and was replaced by fresh DMEM, 10% FBS. Incubation continued for about two more weeks for the colonies to appear. […]

IGROV-1/CP = assay: Cisplatin resistance (IC-50) of resistant sub-line versus parental line; conditions: IGROV-1/CP versus parental IGROV-1
Description: (§1) Three isogenic pairs of sensitive and multidrug resistant phenotypes of human ovarian carcinoma cell lines were studied. […] The morphology of the resistant cells differed from the sensitive isotypes, consistent with the cell surface molecular modifications.

2008/C13*5.25 = assay: as above
Description: as §1

A2780/CP = assay: as above
Description: as §1

[2] = system: 2008/C13*5.25 resistant ovarian carcinoma cells; assay: Cytotoxicity assay by colony forming ability, resistant cells; conditions: 25 μM cisplatin with or without 5 mU sialidase, 1 h, about two weeks of growth
Description: To confirm the sialidase effects on F-DDP internalization and sensitizing the resistant cells to the drug, the resistant cells were tested in cytotoxicity assay to determine colony formation ability with cisplatin treatments in the presence and absence of sialidase. Resistant cells were treated with high concentration of cisplatin (25 μM, an IC-50 about 10 fold higher than that of the sensitive cells) in the absence and presence of 5 mU sialidase (see table 1 in “Experimental procedures”). The colony formation ability of MDR cells was reduced 40-50%, when sialidase concomitant with cisplatin was added to the resistant cells compare to the resistant cells treated with the same amounts of cisplatin in the absence of sialidase. The data, thus, support the sialidase-mediated drug internalization and increasing the cytotoxicity of the drug.
Colony forming ability assay was performed by seeding 100 cells/ml of sensitive or resistant isotypes per each well/ml in 12 well plates. Cells were cultured with DMEM, 10% FBS overnight. The assay was performed in 4 plates for each of the sensitive or resistant isotypes in the format shown in Table 1 and was repeated three times. 2008 isotype pair were used in the experiment. […]

Structure (SMILES): N.N.[Cl][Pt][Cl] [cisplatin, Dichlorodiaminocisplatin]
- colony formation (in words) [1]: almost no real colony formed
- fold increase in IC-50 to cisplatin resistance (IGROV-1/CP): 7.6 fold
- fold increase in IC-50 to cisplatin resistance (2008/C13*5.25; 2008/C13*5.25 versus parental 2008): 10.4 fold
- IC50 (2008/C13*5.25; resistant cells, the concentration used in the colony assay): 25 µM
- fold increase in IC-50 to cisplatin resistance (A2780/CP): 6.9 fold
- cell growth / colony formation relative to control (plate #1 = 100% growth) [2]: about 80 % of the control

Source: patent US7585503B2, “Method for detecting multi-drug resistance” (priority 2005, dated 2009)
